In patent US9920030B2 (priority 2006, dated 2018):

Tests used:
Format in all cases: in vivo
[1] = system: Phytophthora infestans (the causal agent of tomato late blight); experiment: whole plant or invertebrate
[2] = system: Phytophthora infestans (the causal agent of tomato late blight); experiment: whole plant or invertebrate; remark: listed apart in the source
[3] = system: Plasmopara vilicola (the causal agent of grape downy mildew); experiment: Test A: grape downy mildew, test suspension sprayed on grape seedlings after inoculation, visual disease rating
Method in brief: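 Curative spray: spores applied first, plants kept 24 h in saturated air at 20 °C and dried before treatment, then 5 days at 20 °C plus 24 h saturated. Suspension: acetone (3% of volume) in 1:1 acetone/water, 250 ppm Trem 014, sprayed to run-off (200 ppm ≈ 500 g/ha); visual 0–100 control rating.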

[4] = compounds without asterisk (application rate not given), 100 = 100% disease control, 0 = no control relative to the controls

Structure (SMILES)	Percent Disease Control, Test C ([1]; * tested at 40 ppm)	Percent Disease Control, Test B ([2]; * tested at 40 ppm)	Percent Disease Control, Test A ([3]; * tested at 40 ppm)	Percent Disease Control, Test C [1, 4]	Percent Disease Control, Test B [2, 4]	Percent Disease Control, Test A [3, 4]	other results
Cc1cc(C(F)(F)F)nn1CC(=O)N1CCC(c2nc(C3=NOC4(CCCc5cc(C#N)ccc54)C3)cs2)CC1 (stereo not drawn) [Compound 251]	99%	100%	99%	–	–	–	–
Cc1cc(C(F)(F)F)nn1CC(=O)N1CCC(c2nc(C3=NOC4(CC(=O)N(c5ccccc5)C4=O)C3)cs2)CC1 (stereo not drawn) [Compound 252]	97%	91%	88%	–	–	–	–
C[C@]1(c2ccccc2)CC(c2csc(C3CCN(C(=O)Cn4nc(C(F)(F)F)cc4C(F)(F)F)CC3)n2)=NO1 [Compound 260, 2-[3,5-bis(triflyoromethyl)-1H-pyrazol-1-yl]-1-[4-[4-[(5R)-4,5-dihydro-5-methyl-5-phenyl-3-isoxazolyl]-2-thiazolyl]-1-piperidinyl]ethanone]	–	–	–	–	–	–	Percent Disease Control, Test C ([1]; ** tested at l0 ppm): 96%; Percent Disease Control, Test B ([2]; ** tested at l0 ppm): 100%; Percent Disease Control, Test A ([3]; ** tested at l0 ppm): 100%
Cc1cc(C(F)(F)F)nn1CC(=O)N1CCC(c2nc(C3=NOC(Cc4ccccc4S(N)(=O)=O)C3)cs2)CC1 (stereo not drawn) [Compound 262]	91%	100%	79%	–	–	–	–
CC(=O)Oc1ccccc1C1CC(c2csc(C3CCN(C(=O)Cn4nc(C(F)(F)F)cc4C)CC3)n2)=NO1 (stereo not drawn) [Compound 263]	83%	84%	99%	–	–	–	–
Cc1cc(C(F)(F)F)nn1CC(=O)N1CCC(c2nc(C3=NOC(N(C)C(=O)c4ccccc4)C3)cs2)CC1 (stereo not drawn) [Compound 264]	88%	100%	99%	–	–	–	–
Cc1cc(C(F)(F)F)nn1CC(=O)N1CCC(c2nc(C3=NOC4(CC(=O)N(C)C4=O)C3)cs2)CC1 (stereo not drawn) [Compound 267]	–	–	–	100%	100%	100%	–
CCc1ccc(-c2csc(C3CCN(C(=O)Cn4nc(C(F)(F)F)cc4C)CC3)n2)cc1 [Compound 268]	–	–	–	88%	100%	100%	–
Cc1cc(C(F)(F)F)nn1CC(=O)N1CCC(c2nc(-c3ccc(OC(F)(F)F)cc3)cs2)CC1 [Compound 269]	–	–	–	0%	100%	100%	–
COC(=O)c1ccc(-c2csc(C3CCN(C(=O)Cn4nc(C(F)(F)F)cc4C)CC3)n2)cc1 [Compound 270]	–	–	–	0%	83%	99%	–
CCCc1ccc(-c2csc(C3CCN(C(=O)Cn4nc(C(F)(F)F)cc4C)CC3)n2)cc1 [Compound 271]	–	–	–	72%	100%	100%	–
CSc1ccc(-c2csc(C3CCN(C(=O)Cn4nc(C(F)(F)F)cc4C)CC3)n2)cc1 [Compound 272]	–	–	–	100%	100%	100%	–
Cc1cc(C(F)(F)F)nn1CC(=O)N1CCC(c2nc(-c3ccc(C(C)C)cc3)cs2)CC1 [Compound 273]	–	–	–	90%	100%	100%	–
Cc1cc(C(F)(F)F)nn1CC(=O)N1CCC(c2nc(-c3ccc(CC(C)C)cc3)cs2)CC1 [Compound 274]	–	–	–	100%	100%	99%	–
Cc1cc(C(F)(F)F)nn1CC(=O)N1CCC(c2nc(C3=NOC(n4c(=O)n(C)c5ccccc54)C3)cs2)CC1 (stereo not drawn) [Compound 275]	–	–	–	–	–	–	Percent Disease Control, Test C ([1]; ** tested at l0 ppm): 98%; Percent Disease Control, Test B ([2]; ** tested at l0 ppm): 100%; Percent Disease Control, Test A ([3]; ** tested at l0 ppm): 99%
Cc1cc(C(F)(F)F)nn1CC(=O)N1CCC(c2nc(C3=NOC(CN4C(=O)c5ccccc5C4=O)C3)cs2)CC1 (stereo not drawn) [Compound 278]	99%	100%	94%	–	–	–	–
